# Where a name gives a salt, the structure may show the parent alone. Where a SMILES comes first, the peptide text is derived from it. [ ]: non-standard residue; d: D form. dPhe(4-Cl) = N[C@H](Cc1ccc(Cl)cc1)C(=O)O; d2Nal = N[C@H](Cc1ccc2ccccc2c1)C(=O)O; d(hCit) = NC(=O)NCCCC[C@@H](N)C(=O)O; Lys(iPr) = CC(C)NCCCC[C@H](N)C(=O)O; d3Pal = N[C@H](Cc1cccnc1)C(=O)O
# Tested on: healthy female subjects
# Assay: Phase I trial (Example 1): estradiol concentration in serum
# Assay type: in vivo, human
# Description: The Teverelix TFA formulations were manufactured as followed. 0.8 ml or 0.6 ml 5% mannitol were added to the relevant dosage of 60 or 45 mg of the LHRH antagonist Teverelix® trifluoroacetate, respectively. The mixture was stirred using vortex during one minute providing two dosage formulations of Teverelix TFA in a flowing milky pearly microcrystalline aqueous suspensions. The suspensions are made of microcrystals of about 10 μm length. Corresponding placebo formulations, without Teverelix TFA was also prepared
# A phase I clinical trial with formulation A and B (and placebo) was conducted in order to evaluate the pharmacokinetics, pharmacodynamics, safety and tolerability of Teverelix TFA.
# The formulations were each injected subcutaneous (s.c.) as follows: • A single dosage of formulation A (60 mg Teverelix TFA) administered s.c. on day 3±1 of the menstrual cycle, to 8 healthy female subjects • A single dosage of formulation A placebo was administered s.c. to on day 3±1 of the menstrual cycle, to 4 healthy female subjects • Two dosages of formulation B (45 mg Teverelix TFA) administered s.c. to 8 healthy female subjects. The first dosage on day 3±1 of the menstrual cycle and a second dosage administered on day 10±1 of the menstrual cycle, and • two dosages of formulation B placebo was administered s.c. to 4 healthy female subjects. The first dosage on day 3±1 of the […] menstrual cycle and a second dosage administered on day 10±1 of the menstrual cycle.
# The mean estradiol concentration in the respective subjects was measured. The results are shown in table 1 and 2, respectively and is depicted in FIG. 1 in relation to the placebo data.
smiles,measurement,setting,value
"CC(=O)N[C@H](Cc1ccc2ccccc2c1)C(=O)N[C@H](Cc1ccc(Cl)cc1)C(=O)N[C@H](Cc1cccnc1)C(=O)N[C@@H](CO)C(=O)N[C@@H](Cc1ccc(O)cc1)C(=O)N[C@H](CCCCNC(N)=O)C(=O)N[C@@H](CC(C)C)C(=O)N[C@@H](CCCCNC(C)C)C(=O)N1CCC[C@H]1C(=O)N[C@H](C)C(N)=O [Teverelix TFA, N-Ac-d-Nal^1,d-pCl-Phe^2,d-Pal^3,d-(Hci)^6,Lys(iPr)^8,d-Ala^10 trifluoroacetate] (Ac-[d2Nal][dPhe(4-Cl)][d3Pal]SY[d(hCit)]L[Lys(iPr)]P[dA]-NH2; C-terminus assumed)",time at which estradiol returned to near baseline and menses reoccurred in at least one subject,2 × 45 mg one week apart,1008 h p.f.a
same,estradiol mean (SD) concentration relative to baseline,"2 × 45 mg, after first injection, 48 h p.f.a.",−14.56 (9.95) ng/L
same,estradiol mean (SD) concentration relative to baseline,"2 × 45 mg, after second injection, 312 h p.f.a.",−14.20 (10.85) ng/L
same,estradiol concentrations when compared to placebo,"both doses (60 mg; 2 × 45 mg), FIG. 1",significantly reduced
same,time at which estradiol returned to near baseline and menses reoccurred in at least one subject,single 60 mg,840 h p.f.a
same,estradiol mean (SD) concentration relative to baseline,"single 60 mg, 264 h p.f.a",−31.22 (23.11) ng/L
same,estradiol mean (SD) concentration relative to baseline,"single 60 mg, 456 h p.f.a",−1.04 (90.98) ng/L
